Several values for one entry are separate records, joined by “and”; a condition that tells them apart may be missing. Equal values may be shown once.

In series [1] the test system is cultured hippocampal neurons. In words: Live cell photoactivation imaging of neurons with or without ionomycin. The format is cell-based, rat. The settings on record: for rate k of cellular fluorescence increase versus irradiation time: 10 μM, 1 h loading, 365 nm. The procedure: The utility of the embodied system was then observed in a cellular context. The hexa-acetoxymethyl (AM) ester 403 of compound 402 was prepared (FIG. 8). This membrane-permeant compound enabled loading of cultured hippocampal neurons with the light-gated chemodosimeter. The overlap of the photouncaging wavelength (λ=351 nm) and the excitation spectra (λmax=402 nm) of the coumarin allowed simultaneous imaging and activation with a single light source centered at 365 nm.
(§1) HEK293T/17 cells (ATCC) were cultured according to instructions in poly-D-lysine-coated 24-well CellBind plates (Corning) in Dulbecco's modified eagle medium (DMEM; Invitrogen) supplemented with 10% v/v fetal bovine serum (FBS; Invitrogen) and maintained at 37° C. in a humidified 5% CO2 v/v environment. Primary rat hippocampal neurons were prepared and cultured as described previously. Imaging buffer for HEK293T/17 cells consisted of Dulbecco's phosphate buffered saline (DPBS; Invitrogen). Imaging buffer for cultured neurons consisted of: 145 mM NaCl, 2.5 KCl, 10 mM glucose, 10 mM HEPES pH 7.4, 2 mM CaCl2, and 1 mM MgCl2. To load cells with the dosimeter, a stock solution of 403 (1 mM) in DMSO containing 10% w/v Pluronic F-127 (Sigma) was added to a final concentration of 10 μM in imaging buffer. Cells were incubated in this solution for 1 h at 37° C., after which the cells were washed with imaging buffer (3×) and imaged. The final imaging buffer wash for cultured neurons additionally contained pharmacological agents (10 μM CNQX, 10 μM (R)-CPP, 10 μM gabazine, and 1 mM (S)-MCPG; Tocris) to block spontaneous cellular activity.
(§2) Cells were imaged on a Olympus IX-81 microscope using a 10× or 20× objective and a DAPI filter set (Semrock DAPI-5060C-000; excitation: 352-402 nm, dichroic cutoff: 409 nm, emission: 417-477 nm) filtering a mercury arc lamp. Excitation/photoactivation light was attenuated using a neutral density filter giving a light intensity of 60 mW/cm^2. To raise intracellular calcium ion levels (FIGS. 19B, 21B, and 22B), cells were incubated with 10 μM ionomycin (Sigma) and 4 mM CaCl2 for 2 min prior to imaging.

Another series has as its system cultured neurons. In words: Light-gated integration of Ca^2+ evoked by electrical stimulation. The format is cell-based, rat. The settings on record: for rate k of increase in cellular fluorescence versus irradiation time: n=20. The procedure:
The present compound was then utilized to measure calcium ion changes in neurons evoked by electrical activity. Low-affinity reversible Ca^2+ indicators are advantageous for use in biological systems as their low buffering capacity preserves native calcium ion dynamics. Nevertheless, poor signal-to-background ratios of such indicators may restricts their utility to subcellular compartments undergoing extremely high calcium flux (e.g., dendritic spines). […] Cells were incubated with AM ester 403 and subjected to the photoactivation imaging protocol. In one population of cells neuronal action potential firing was elicited by field stimulation at 80 Hz.
as §1, §2
Cultured neurons loaded with compound 403 were stimulated electrically to induce action potential firing at 80 Hz for one second prior to and during illumination with excitation/photoactivation light. A Grass S48 Stimulator (Grass Technologies) was used with a custom-built platinum wire field stimulation electrode.

Series [2] is described as follows: Determination of photochemical quantum yield (365 nm irradiation, fluorescence of released fluorophore). The format is physicochemical. The following applies: for photochemical quantum yield (Φ) in the presence of Ca^2+: 10 mM CaCl2, 30 mM MOPS pH 7.2, 100 mM KCl; for photochemical quantum yield (Φ) in the presence of Ca^2+ / photochemical quantum yield (Φ) in the absence of Ca^2+: 365 nm; for photochemical quantum yield (Φ) in the absence of Ca^2+: 10 mM EGTA, 30 mM MOPS pH 7.2, 100 mM KCl; for enhancement in photochemical quantum yield upon Ca^2+ binding: presence vs absence of Ca^2+. On the procedure:
(§3) All measurements were taken at ambient temperature (23±2° C.). […] Spectroscopy was performed using 1-cm path length quartz or polymethacrylate cuvettes (Starna or Fisher). Absorption measurements were recorded on a Cary Model 100 spectrometer (Varian). Fluorescence measurements spectra were recorded on a Cary Eclipse fluorometer (Varian). Buffer pH was adjusted with KOH. Curve fitting was accomplished with GraphPad Prism 5.
Photochemistry was performed in 1-cm path length/3.5 mL quartz cuvettes (Starna) in a Luzchem LZC 4V photoreactor equipped with 365 nm UV lamps, a carousel, and a timer. The irradiation was determined by potassium ferrioxalate actinometry.^3 A solution of 60 mM K3Fe(C2O4)3 was irradiated using the photoreactor setup. Released Fe^2+ was determined by complexometry with 1,10 phenanthroline. Using the known photochemical quantum yield of this process, we determined the photon flux (I)=[…]. Samples (10 μM, 3.5 mL) were irradiated in either zero calcium buffer (30 mM MOPS pH 7.2, 10 mM EGTA, 100 mM KCl) or calcium-containing buffer (30 mM MOPS pH 7.2, 10 mM CaCl2, 100 mM KCl) and a small aliquot (30 μL) was removed and diluted 100-fold in matching buffer. The fluorescence of these samples was then measured (coumarin 402: λex/λem=402/447 nm; Tokyo Green compound S13: λex/λem=496/520 nm). The quantum yield (Φ, mol/ein) was determined by fitting a plot of fluorescence vs. irradiation time to a one-phase association described by equation 1: Ft=Fmax−Fmax(e^−IσΦt) (1) where Fmax=maximal fluorescence, t=time (min), Ft=fluorescence at time t, I=irradiation (ein/min·cm^2), and σ=decadic extinction coefficient (cm^2/mol; 1000-fold higher than the value with units of M^−1 cm^−1 based on cuvette geometry). For compound 402 we determined Φ=4.8±0.2% (mean±SE) in the presence of 10 mM Ca^2+ and Φ=0.0079±0.0003% in the presence of 10 mM EGTA (FIG. 19B). For compound S13 we found Φ=1.63±0.05% in the presence of 10 mM Ca^2+ and Φ=0.0110±0.0004% in the presence of 10 mM EGTA (FIG. 20A).

Series [3] is described as follows: Absorption spectrum in buffers containing varying [Ca^2+]. The series is classed as physicochemical.
Excerpt: The absorption spectrum of 402 was first examined in buffers containing varying [Ca^2+] (FIG. 19A). […] A small (<5%) but significant increase in absorption around 350 nm was also observed when calcium ion concentration is raised. However, the coumarin moiety dominates absorption in the UV with an extinction coefficient (e)=2.4×10^4 M^−1 cm^−1 at 350 nm. These absorbance changes indicate that chelation of calcium causes a switch from the colored quinoid form to the UV-absorbing aromatic form (FIG. 3).
as §3

Series [4] in a line: Determination of Kd from fluorescence after photoactivation as a function of [Ca^2+]. The format is binding. The following applies: methoxy replaced with pyrrolidine, versus 402; readout not stated. The procedure: as §3
For [Ca^2+]<40 μM, the free calcium concentration was controlled by a commercial EGTA buffer system (Invitrogen). […] For [Ca^2+]>40 μM, buffers were prepared with 1 mM EGTA and excess CaCl2 in 30 mM MOPS pH 7.2 and 100 mM KCl. Different buffer solutions containing 100 nM of 402 or S13 were irradiated in clean glass vials for 1 min using the photoreactor setup described above. The samples were then transferred to a black, clear bottom, 96-well polystyrene microplate with a nonbinding surface coating (Corning). Fluorescence was read from the bottom on a FlexStation3 fluorescence microplate reader (Molecular Devices; for coumarin 402: λex/λem=402/447 nm; for Tokyo Green compound S13: λex/λem=496/520 nm). The plot of fluorescence vs. [Ca^2+] was fit to one site-specific binding curve to determine the Kd. Found: 28.3±0.6 μM (±SE) for 402 and 28.0±0.8. μM for S13.

`COc1ccc(N(CC(=O)OCOC(C)=O)CC(=O)OCOC(C)=O)c(OCCOc2cc([N+](=O)[O-])c(COc3ccc4cc(C(=O)N[C@H]5CC[C@H](N(CC(=O)OCOC(C)=O)CC(=O)OCOC(C)=O)CC5)c(=O)oc4c3)cc2N(CC(=O)OCOC(C)=O)CC(=O)OCOC(C)=O)c1` [compound 403, Bis(acetoxymethyl) 2,2′-((2-(2-(2-(bis(2-(acetoxymethoxy)-2-oxoethyl)amino)-4-(((3-(((1r,4r)-4-(bis(2-(acetoxymethoxy)-2-oxoethyl)amino)cyclohexyl)carbamoyl)-2-oxo-2H-chromen-7-yl)oxy)methyl)-5-nitrophenoxy)ethoxy)-4-methoxyphenyl)azanediyl)diacetate]: the “increase in the accumulation of cellular fluorescence” value in series [1] (cells pretreated with ionomycin vs control cells) stood at 40 fold. For the same compound, in series [1] (control cells without ionomycin), the “fluorescence increase on illumination of control cells” value is listed as “did not elicit significant fluorescence increase”. In addition, the “rate k of cellular fluorescence increase versus irradiation time” value in series [1] (ionomycin-treated neurons) is 0.240 s⁻¹; in series [1] (untreated neurons), 0.0060 s⁻¹. In the series with cultured neurons (field stimulation at 80 Hz), the “permanent increase in cellular fluorescence” value came to 200%. Further, the “rate increase in cellular fluorescence relative to unstimulated cells” value in the series with cultured neurons (field stimulation at 80 Hz) is given as 4 fold. In addition, the “rate k of increase in cellular fluorescence versus irradiation time” value in the series on cultured neurons (with field stimulation at 80 Hz) was 0.133 s⁻¹; with cultured neurons (without electrical stimulation), 0.0325 s⁻¹.
For the compound `COc1ccc(-c2c3ccc(=O)cc-3oc3cc(OCc4cc(N(CC(=O)O)CC(=O)O)c(OCCOc5cc(OC)ccc5N(CC(=O)O)CC(=O)O)cc4[N+](=O)[O-])ccc23)c(C)c1` [compound S13, 2,2′-((2-(2-(2-(Bis(carboxymethyl)amino)-4-(((9-(4-methoxy-2-methylphenyl)-3-oxo-3H-xanthen-6-yl)oxy)methyl)-5-nitrophenoxy)ethoxy)-4-methoxyphenyl)azanediyl)diacetic acid], in series [2], the “photochemical quantum yield (Φ) in the presence of Ca^2+” value was 1.6% and 1.63±0.05%; the “photochemical quantum yield (Φ) in the absence of Ca^2+” value is 0.011% and 0.0110±0.0004%; the “enhancement in photochemical quantum yield upon Ca^2+ binding” value was 150 fold.
As to `COc1ccc(N(CC(=O)O)CC(=O)O)c(OCCOc2cc([N+](=O)[O-])c(COc3ccc4cc(C(=O)NC5CCC(N(CC(=O)O)CC(=O)O)CC5)c(=O)oc4c3)cc2N(CC(=O)O)CC(=O)O)c1` (stereo not shown) [compound 402, 2,2′((2-(2-(2-(Bis(carboxymethyl)amino)-4-(((3-(((1r,4r)-4-(bis(carboxymethyl)amino)cyclohexyl)carbamoyl)-2-oxo-2H-chromen-7-yl)oxy)methyl)-5-nitrophenoxy)ethoxy)-4-methoxyphenyl)azanediyl)diacetic acid], in series [2], the “photochemical quantum yield (Φ) in the presence of Ca^2+” value was 4.8% and 4.8±0.2%; the “photochemical quantum yield (Φ) in the absence of Ca^2+” value was 0.008% and 0.0079±0.0003%; the “enhancement in photochemical quantum yield upon Ca^2+ binding” value was 600 fold. The “Ca^2+ dependence of uncaging photochemistry” value in series [2] (fluorescence of released coumarin vs 365 nm irradiation time, 10 mM CaCl2 or 10 mM EGTA) is given as “efficient photochemistry was observed only in the presence of calcium”. For the same compound, in series [3], the “increase in absorption around 350 nm when calcium ion concentration is raised” value is listed as below 5% and the “visible absorption at 430 nm as [Ca^2+] increases” value is recorded as “dramatic decrease”. The same compound came in with an extinction coefficient in series [3] (at 350 nm) of 24000 M⁻¹ cm⁻¹.
Regarding `O=C(O)CN(CC(=O)O)c1ccc(N2CCCC2)cc1OCCOc1cc([N+](=O)[O-])c(COc2ccc3cc(C(=O)NC4CCC(N(CC(=O)O)CC(=O)O)CC4)c(=O)oc3c2)cc1N(CC(=O)O)CC(=O)O` (stereo not shown) [compound of FIG. 14, where R═H, 2,2′-((2-(2-(2-(Bis(carboxymethyl)amino)-4-(((3-(((1r,4r)-4-(bis(carboxymethyl)amino)cyclohexyl)carbamoyl)-2-oxo-2H-chromen-7-yl)oxy)methyl)-5-nitrophenoxy)ethoxy)-4-(pyrrolidin-1-yl)phenyl)azanediyl)diacetic acid], the “effect of the modification on calcium affinity” value in series [4] is “did not increase”.

The values are drawn from US10407399B2, “Ion-activated photolabile compounds” (HOWARD HUGHES MEDICAL INSTITUTE, priority 2015, dated 2019).
